From ChEMBL document CHEMBL1201862, “PubChem BioAssay data set” (2004)
Active and inactive are the calls of the source. For most assays here, no stated cut-off is given here; in the data, actives have a measured EC50 and inactives only a lower limit.

Key:
[1] = target: T1, Protein RecA (Mycobacterium tuberculosis, UniProt P9WHJ3); test: Fluorescence Cell-Free Homogeneous Dose Retest to Identify Inhibitors of RecA-Intein Splicing Activity. [Related pubchem assays (depositor defined):AID2097, AID2223, AID489010, AID492950]; type: functional
T1 sequence (P9WHJ3 whole entry): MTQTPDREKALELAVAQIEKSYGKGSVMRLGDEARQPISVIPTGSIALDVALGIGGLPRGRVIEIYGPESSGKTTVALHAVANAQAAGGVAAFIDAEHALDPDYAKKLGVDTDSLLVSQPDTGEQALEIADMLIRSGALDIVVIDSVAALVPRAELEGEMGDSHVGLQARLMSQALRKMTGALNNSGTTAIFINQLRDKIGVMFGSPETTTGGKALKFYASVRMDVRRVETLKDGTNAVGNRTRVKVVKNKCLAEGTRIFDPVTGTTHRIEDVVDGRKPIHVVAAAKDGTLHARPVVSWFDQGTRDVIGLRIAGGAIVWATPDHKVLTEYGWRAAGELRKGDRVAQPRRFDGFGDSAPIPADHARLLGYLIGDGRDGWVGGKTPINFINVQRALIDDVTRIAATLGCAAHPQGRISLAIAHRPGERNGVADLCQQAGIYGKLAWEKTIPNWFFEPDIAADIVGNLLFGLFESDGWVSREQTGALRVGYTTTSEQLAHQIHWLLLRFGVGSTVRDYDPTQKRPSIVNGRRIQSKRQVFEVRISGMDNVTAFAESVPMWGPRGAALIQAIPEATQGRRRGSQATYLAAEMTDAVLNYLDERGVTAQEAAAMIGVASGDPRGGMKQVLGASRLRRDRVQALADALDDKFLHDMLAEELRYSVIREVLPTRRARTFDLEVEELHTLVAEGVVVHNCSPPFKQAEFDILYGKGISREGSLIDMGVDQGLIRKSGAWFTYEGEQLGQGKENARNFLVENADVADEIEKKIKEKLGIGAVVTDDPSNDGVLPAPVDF

[2] = target: T2, RNA-binding protein pos-1 (Caenorhabditis elegans, UniProt G5EF15); test: inhibitors of POS-1/mex-3 RNA binding, dose response, biochemical, fluorescence polarization (AID 1964);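 further: purified POS-1 fused to maltose binding protein made in E. coli; potency of compounds blocking POS-1 binding to fluorescent RNA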
T2 sequence (G5EF15 whole entry): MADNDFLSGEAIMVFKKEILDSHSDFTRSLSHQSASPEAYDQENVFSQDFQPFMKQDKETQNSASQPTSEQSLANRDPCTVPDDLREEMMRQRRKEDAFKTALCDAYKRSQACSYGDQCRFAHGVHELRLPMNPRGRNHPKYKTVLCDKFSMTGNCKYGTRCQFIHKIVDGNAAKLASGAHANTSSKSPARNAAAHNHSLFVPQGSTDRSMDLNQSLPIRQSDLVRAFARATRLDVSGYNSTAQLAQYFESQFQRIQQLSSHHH

[3] = target: T3, Zinc finger protein mex-5 (Caenorhabditis elegans, UniProt Q9XUB2); test: MEX-5/TCR-2 RNA interaction inhibitors, dose response, biochemical, C. elegans, fluorescence polarization (AID 1960)
T3 sequence (Q9XUB2 whole entry): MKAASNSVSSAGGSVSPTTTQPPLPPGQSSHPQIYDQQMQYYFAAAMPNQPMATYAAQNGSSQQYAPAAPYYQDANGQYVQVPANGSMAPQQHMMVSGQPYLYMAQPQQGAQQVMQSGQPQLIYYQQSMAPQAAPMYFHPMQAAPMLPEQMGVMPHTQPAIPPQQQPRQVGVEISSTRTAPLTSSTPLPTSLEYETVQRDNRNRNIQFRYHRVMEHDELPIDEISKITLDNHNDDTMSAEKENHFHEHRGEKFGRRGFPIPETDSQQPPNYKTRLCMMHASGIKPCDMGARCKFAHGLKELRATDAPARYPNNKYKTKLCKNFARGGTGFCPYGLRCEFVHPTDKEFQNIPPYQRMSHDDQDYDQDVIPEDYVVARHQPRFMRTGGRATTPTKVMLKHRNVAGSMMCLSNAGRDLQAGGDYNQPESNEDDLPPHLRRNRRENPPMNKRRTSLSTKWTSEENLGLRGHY

[4] = target: T4, Hexokinase HKDC1 (Homo sapiens, UniProt Q2TB90); test: HKDC1 hexokinase inhibitors, dose response, biochemical, W721R variant (AID 504729); type: functional
T4 sequence (Q2TB90 whole entry): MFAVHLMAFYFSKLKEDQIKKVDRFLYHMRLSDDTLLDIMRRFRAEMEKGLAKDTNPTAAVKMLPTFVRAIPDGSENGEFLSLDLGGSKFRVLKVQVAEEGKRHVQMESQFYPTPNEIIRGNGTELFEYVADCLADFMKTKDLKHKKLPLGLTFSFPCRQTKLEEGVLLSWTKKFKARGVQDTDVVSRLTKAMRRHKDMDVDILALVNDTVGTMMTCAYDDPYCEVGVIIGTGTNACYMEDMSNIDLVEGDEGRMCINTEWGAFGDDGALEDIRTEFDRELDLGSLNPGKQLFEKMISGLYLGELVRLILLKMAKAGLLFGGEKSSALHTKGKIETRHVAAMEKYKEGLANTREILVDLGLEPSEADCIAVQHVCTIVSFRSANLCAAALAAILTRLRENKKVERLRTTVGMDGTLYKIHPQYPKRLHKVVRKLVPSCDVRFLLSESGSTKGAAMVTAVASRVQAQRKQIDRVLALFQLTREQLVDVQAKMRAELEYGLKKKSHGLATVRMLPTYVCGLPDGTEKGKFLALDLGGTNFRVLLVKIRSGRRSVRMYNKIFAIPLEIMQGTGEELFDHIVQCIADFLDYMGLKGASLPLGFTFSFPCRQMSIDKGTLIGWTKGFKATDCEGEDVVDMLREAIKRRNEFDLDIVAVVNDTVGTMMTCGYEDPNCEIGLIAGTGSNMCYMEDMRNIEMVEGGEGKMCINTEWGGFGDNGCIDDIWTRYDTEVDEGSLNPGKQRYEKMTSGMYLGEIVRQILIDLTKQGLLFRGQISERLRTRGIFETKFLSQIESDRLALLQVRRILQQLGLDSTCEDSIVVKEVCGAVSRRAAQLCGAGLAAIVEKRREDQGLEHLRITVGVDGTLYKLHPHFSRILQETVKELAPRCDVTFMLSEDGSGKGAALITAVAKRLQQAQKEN

## Cc1cc(C)c(S(=O)(=O)Nc2cc(SCC(=O)O)c(O)c3ccccc23)cc1C
[1]
  EC50: 0.277 µM (active)
[2]
  EC50: > 300 µM (not active)
[3]
  EC50: 38.6 µM (active)
[4]
  IC50: 4.72 µM (active)

## O=C(O)c1cc(N2N=C(C(F)(F)F)/C(=C/C=C/c3ccco3)C2=O)ccc1Cl
[4]
  IC50: 5.66 µM (active)

## O=C(/C=C/c1ccco1)NC(=S)Nc1cccc(C(=O)O)c1
[2]
  EC50: 8.57 µM (active)
[3]
  EC50: 8.73 µM (active)

## CNCc1ccccc1Sc1ccc(O)c(O)c1
[1]
  EC50: 2.57 µM (active)
[2]
  EC50: 34.8 µM (active)
[3]
  EC50: 22.6 µM (inconclusive)
